Source: patent publication US11219614B2, “Combination cancer therapy with pentaaza macrocyclic ring complex and ascorbate compound” (Galera Labs, LLC, priority 2016, dated 2022)

Columns and labels:
[1] = test system: head and neck squamous cell carcinoma cells (SCC25); experiment: clonogenic cell survival assay, SCC25; format: cell-based, Human; details: ascorbate 1 h in combination with 5, 10 or 20 μM GC4419 24 h, both present at the same time; compared to monotherapies or sequential treatment with media replacement; FIG. 3
Protocol: FIG. 3 is a plot showing the surviving fraction of SCC25 cells for increasing amounts of ascorbate, as determined by a clonogenic cell survival assay used to determine the effects of the compound alone and in combination with a pentaaza macrocyclic ring complex (GC4419). Human head and neck squamous cell carcinoma cells (SCC25) were exponentially grown in culture for 24 hours. The cells were then treated with 5-20 μM GC4419 for 24 hours and ascorbate (Asc) for one hour, followed by immediate clonogenic assay. The cells were trypsinized, counted, replated at varying lower densities and incubated. Plates were stained and counted for clonogenic survival assays.
The effect of ascorbate was tested in a clonogenic cell survival assay to determine the effects of the compound alone and in combination with a pentaaza macrocyclic ring complex (GC4419). Human head and neck squamous cell carcinoma cells (SCC25) were exponentially grown in culture for 24 hours. The cells were then treated with 5-20 μM GC4419 for 24 hours, and ascorbate (Asc) for one hour, followed by immediate clonogenic assay. The cells were trypsinized, counted, replated at varying lower densities and incubated. Plates were stained and counted for clonogenic survival assays.

[2] = test system: Non-small cell lung cancer cells (H1299); experiment: clonogenic cell survival assay, H1299; format: cell-based
Protocol: (§1) FIG. 1 is a plot showing the surviving fraction of H1299 cells for increasing amounts of ascorbate, as determined by a clonogenic cell survival assay used to determine the effects of the compound alone and in combination with a pentaaza macrocyclic ring complex (GC4419). Non-small cell lung cancer cells (H1299) were exponentially grown in culture for 48 hours. The cells were then treated with 5-20 μM GC4419 for 24 hours and ascorbate (Asc) for one hour, followed immediately by clonogenic assay. The cells were trypsinized, counted, replated at varying lower densities and incubated. Plates were stained and counted for clonogenic survival assays.
as §1, with “FIG. 10” for “FIG. 1”, “with either the” for “with a”, “complex (GC4419) or the pentaaza macrocyclic ring complex (GC4401).” for “complex (GC4419).”, “with ascorbate (Asc) at the concentrations shown for one hour and either 10” for “with 5-20”, “GC4419 or 10 μM GC4401” for “GC4419”, “24 hours. After 24 hours, the” for “24 hours and ascorbate (Asc) for one hour, followed immediately by clonogenic assay. The”
FIG. 11 is a graph showing the surviving fraction of H1299 cells treated with ascorbate and combinations including ascorbate and/or auranofin. […] The cells were then trypsinized, counted, replated at varying lower densities and incubated. Plates were stained and counted for clonogenic survival assays.
(§2) The effect of ascorbate was tested in a clonogenic cell survival assay to determine the effects of the compound alone and in combination with a pentaaza macrocyclic ring complex (GC4419). […] The cells were trypsinized, counted, replated at varying lower densities and incubated. Plates were stained and counted for clonogenic survival assays.
as §2, with “with the” for “with a”, “complex (GC4419) and the pentaaza macrocyclic ring complex (GC4401).” for “complex (GC4419).”
The effects of ascorbate in combination with a pentaaza macrocyclic ring complex (GC4419) was tested in a clonogenic cell survival assay to determine the effects of the combination alone and when paired with the thioredoxin reductase inhibitor auranofin. […] The cells were then trypsinized, counted, replated at varying lower densities and incubated. […]

Lung cancer cells (H292) = experiment: clonogenic cell survival assay, H292; format: cell-based; details: ascorbate 1 h in combination with 5, 10 or 20 μM GC4419 24 h; compared to monotherapies; FIG. 2
Protocol: FIG. 2 is a plot showing the surviving fraction of H292 cells for increasing amounts of ascorbate, as determined by a clonogenic cell survival assay to used determine the effects of the compound alone and in combination with a pentaaza macrocyclic ring complex (GC4419). Lung cancer cells (H292) were exponentially grown in culture for 48 hours. The cells were then treated with 5-20 μM GC4419 for 24 hours, and ascorbate (Asc) for one hour, followed immediately by clonogenic assay. The cells were trypsinized, counted, replated at varying lower densities and incubated. Plates were stained and counted for clonogenic survival assays.
The effect of ascorbate was tested in a clonogenic cell survival assay to determine the effects of the compound alone and in combination with a pentaaza macrocyclic ring complex (GC4419). Lung cancer cells (H292) were exponentially grown in culture for 48 hours. The cells were then treated with 5-20 μM GC4419 for 24 hours, and ascorbate (Asc) for one hour followed by immediate clonogenic assay. The cells were trypsinized, counted, replated at varying lower densities and incubated. Plates were stained and counted for clonogenic survival assays.

[3] = test system: Normal human fibroblasts (NHFs); experiment: surviving fraction of normal human fibroblasts; format: cell-based; details: 5 μM GC4419 24 h followed by 10 pmol/cell ascorbate 1 h; FIG. 9
Protocol: FIG. 9 is a graph showing the normalized surviving fraction of normal human fibroblasts (NHFs) treated with GC4419, ascorbate, and a combination of GC4419 and ascorbate. Normal human fibroblasts (NHFs) were plated and grown in culture (low FBS media) for 48 hours. The NHFs were then treated with 5 μM GC4419 for 24 hours followed by treatment with 10 pmol/cell ascorbate for 1 hour.
Normal human fibroblasts (NHFs) were plated and grown in culture (low FBS media) for 48 hours. The NHFs were then treated with 5 μM GC4419 for 24 hours followed by treatment with 10 pmol/cell ascorbate for 1 hour.

## [Cl][Mn][Cl].c1cc2nc(c1)CN[C@H]1CCCC[C@@H]1NCCN[C@H]1CCCC[C@@H]1NC2 [GC4419]
[1]
  cell killing (clonogenic survival): significant enhancements in cell killing
[2]; 1 μM auranofin 24 h + 10 μM GC4419 24 h + 10 pmol/cell ascorbate 1 h, compared to control, monotherapies and pairwise combinations, FIG. 11
  cell killing (clonogenic survival): also resulted in significant enhancements in cell killing
[2]; 10 μM GC4419 24 h + 10 pmol/cell ascorbate 1 h, compared to control and monotherapies, FIG. 11
  cell killing (clonogenic survival): significant enhancements in cell killing
[2]; ascorbate 1 h in combination with 5 μM or 20 μM GC4419 24 h, compared to ascorbate or GC4419 monotherapies, FIG. 1
  cell killing (clonogenic survival): significant enhancements in cell killing
[2]; ascorbate 1 h in combination with 10 μM complex 24 h, compared to control, FIG. 10
  cell killing (clonogenic survival): significant enhancements in cell killing
Lung cancer cells (H292)
  cell killing (clonogenic survival): significant enhancements in cell killing
[3]
  cytotoxicity to normal cells: does not increase cytotoxicity of ascorbate
